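Test compounds were applied to cells in 96-well plates for 48 hours at 5 doses. The concentration for 50% growth inhibition is given as GI50.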 Activity calls are given as the source filed them. No stated cut-off is given here; in the data, active = GI50 up to about 1.1 µM and inactive = higher.
Columns and labels:
Assay in all cases: DTP human tumour cell line panel, 48 h
[1] = system: A498
[2] = system: BT-549
[3] = system: CAKI-1
[4] = system: CCRF-CEM
[5] = system: HCT-15
[6] = system: HL-60
[7] = system: MDA-MB-435
[8] = system: MDA-N
[9] = system: NCI-H226
[10] = system: NCI-H23
[11] = system: NCI-H460
[12] = system: NCI-H522
[13] = system: OVCAR-5
[14] = system: RXF 393
[15] = system: SF-539
[16] = system: SK-MEL-2
[17] = system: SN12C
[18] = system: SNB-19
[19] = system: SW-620
[20] = system: TK-10

## COc1ccc(-c2nc(N)n(C)c2SSc2c(-c3ccc(OC)cc3)nc(N)n2C)cc1
[1]
  GI50: 7.64 µM (inactive)
[2]
  GI50: 2.32 µM (inactive)
[3]
  GI50: 10.1 µM (inactive)
[4]
  GI50: 2.76 µM (inactive)
[5]
  GI50: 3.04 µM
[6]
  GI50: 2.59 µM (inactive)
[7]
  GI50: 3.92 µM (inactive)
[8]
  GI50: 2.63 µM (inactive)
[9]
  GI50: 17.4 µM (inactive)
[10]
  GI50: 5.14 µM (inactive)
[11]
  GI50: 20.8 µM (inactive)
[12]
  GI50: 1.81 µM (inactive)
[13]
  GI50: 6.85 µM (inactive)
[14]
  GI50: 2.74 µM (inactive)
[15]
  GI50: 4.69 µM (inactive)
[16]
  GI50: 15.6 µM (inactive)
[17]
  GI50: 11.3 µM (inactive)
[18]
  GI50: 12.9 µM (inactive)
[19]
  GI50: 2.23 µM (inactive)
[20]
  GI50: 14.5 µM (inactive)

## CSc1nnnc2ccccc12
[1]
  GI50: > 100 µM (inactive)
[2]
  GI50: > 100 µM (inactive)
[3]
  GI50: > 100 µM (inactive)
[4]
  GI50: 51.4 µM (inactive)
[5]
  GI50: > 100 µM
[6]
  GI50: > 100 µM (inactive)
[7]
  GI50: > 100 µM (inactive)
[8]
  GI50: > 100 µM (inactive)
[9]
  GI50: > 100 µM (inactive)
[10]
  GI50: > 100 µM (inactive)
[11]
  GI50: > 100 µM (inactive)
[12]
  GI50: > 100 µM (inactive)
[13]
  GI50: > 100 µM (inactive)
[14]
  GI50: > 100 µM (inactive)
[15]
  GI50: > 100 µM (inactive)
[16]
  GI50: > 100 µM (inactive)
[17]
  GI50: > 100 µM (inactive)
[18]
  GI50: > 100 µM (inactive)
[19]
  GI50: > 100 µM (inactive)
[20]
  GI50: > 100 µM (inactive)

## C[C@]12CC[C@H](O)C[C@@H]1CC[C@@H]1[C@@H]2CC[C@]2(C)[C@@H](C3=CC(=O)OC3)CC[C@]12O
[1]
  GI50: 4.5 µM (inactive)
[2]
  GI50: 1.88 µM (inactive)
[3]
  GI50: 1.81 µM (inactive)
[4]
  GI50: 0.76 µM (active)
[5]
  GI50: 1.86 µM
[6]
  GI50: 2.88 µM (inactive)
[7]
  GI50: 3.03 µM (inactive)
[8]
  GI50: 2.02 µM (inactive)
[9]
  GI50: 11.2 µM (inactive)
[10]
  GI50: 1.87 µM (inactive)
[11]
  GI50: 0.673 µM (active)
[12]
  GI50: 0.719 µM (active)
[13]
  GI50: 4.25 µM (inactive)
[14]
  GI50: 0.736 µM (active)
[15]
  GI50: 1.29 µM (inactive)
[16]
  GI50: 3.33 µM (inactive)
[17]
  GI50: 0.964 µM (active)
[18]
  GI50: 4.95 µM (inactive)
[19]
  GI50: 3.51 µM (inactive)
[20]
  GI50: 4 µM (inactive)

## CSc1ccc2c(cc1=O)[C@@H](NC(=O)c1ccc([N+](=O)[O-])cc1)CCc1cc(O)c(O)c(O)c1-2
[1]
  GI50: > 100 µM (inactive)
[2]
  GI50: 60.3 µM (inactive)
[3]
  GI50: 21.6 µM (inactive)
[4]
  GI50: 4.58 µM (inactive)
[5]
  GI50: 30.4 µM
[6]
  GI50: 11.7 µM (inactive)
[7]
  GI50: 16.6 µM (inactive)
[8]
  GI50: 22.4 µM (inactive)
[9]
  GI50: 46.5 µM (inactive)
[10]
  GI50: 45.3 µM (inactive)
[11]
  GI50: 40 µM (inactive)
[12]
  GI50: 37.2 µM (inactive)
[13]
  GI50: > 100 µM (inactive)
[14]
  GI50: > 100 µM (inactive)
[15]
  GI50: 28.8 µM (inactive)
[16]
  GI50: > 100 µM (inactive)
[17]
  GI50: 21.6 µM (inactive)
[18]
  GI50: 18.4 µM (inactive)
[19]
  GI50: 43.6 µM (inactive)
[20]
  GI50: > 100 µM (inactive)

## C=CCOc1ccc(C2(c3ccc(OCC=C)cc3)C(=O)Nc3ccccc32)cc1
[1]
  GI50: > 10 µM (inactive)
[2]
  GI50: 9.31 µM (inactive)
[3]
  GI50: > 10 µM (inactive)
[4]
  GI50: > 10 µM (inactive)
[5]
  GI50: > 10 µM
[6]
  GI50: > 10 µM (inactive)
[7]
  GI50: > 10 µM (inactive)
[8]
  GI50: > 10 µM (inactive)
[9]
  GI50: > 10 µM (inactive)
[10]
  GI50: > 10 µM (inactive)
[11]
  GI50: > 10 µM (inactive)
[12]
  GI50: > 10 µM (inactive)
[13]
  GI50: > 10 µM (inactive)
[14]
  GI50: > 10 µM (inactive)
[15]
  GI50: > 10 µM (inactive)
[16]
  GI50: > 10 µM (inactive)
[17]
  GI50: > 10 µM (inactive)
[18]
  GI50: > 10 µM (inactive)
[19]
  GI50: > 10 µM (inactive)
[20]
  GI50: > 10 µM (inactive)

## CC(C#N)(NO)C(C)(C#N)NO (stereo not given)
[1]
  GI50: > 100 µM (inactive)
[2]
  GI50: > 100 µM (inactive)
[3]
  GI50: > 100 µM (inactive)
[4]
  GI50: > 100 µM (inactive)
[5]
  GI50: > 100 µM
[6]
  GI50: > 100 µM (inactive)
[7]
  GI50: > 100 µM (inactive)
[8]
  GI50: > 100 µM (inactive)
[9]
  GI50: 97.9 µM (inactive)
[10]
  GI50: > 100 µM (inactive)
[11]
  GI50: > 100 µM (inactive)
[12]
  GI50: > 100 µM (inactive)
[13]
  GI50: > 100 µM (inactive)
[14]
  GI50: > 100 µM (inactive)
[15]
  GI50: > 100 µM (inactive)
[16]
  GI50: > 100 µM (inactive)
[17]
  GI50: > 100 µM (inactive)
[18]
  GI50: > 100 µM (inactive)
[19]
  GI50: > 100 µM (inactive)
[20]
  GI50: > 100 µM (inactive)

## C=C1C(=O)O[C@@H]2[C@@H]3O[C@@H](C[C@@H]13)[C@](C)(O)CC/C=C(\C)CCC[C@@H]2C
[1]
  GI50: 13.2 µM (inactive)
[2]
  GI50: 12.6 µM (inactive)
[3]
  GI50: 13 µM (inactive)
[4]
  GI50: 2.86 µM (inactive)
[5]
  GI50: 11.6 µM
[6]
  GI50: 2.8 µM (inactive)
[7]
  GI50: 7.87 µM (inactive)
[8]
  GI50: 4.75 µM (inactive)
[9]
  GI50: 19.7 µM (inactive)
[10]
  GI50: 13.3 µM (inactive)
[11]
  GI50: 14.1 µM (inactive)
[12]
  GI50: 5.87 µM (inactive)
[13]
  GI50: 22 µM (inactive)
[14]
  GI50: 13.6 µM (inactive)
[15]
  GI50: 10.5 µM (inactive)
[16]
  GI50: 13.3 µM (inactive)
[17]
  GI50: 12 µM (inactive)
[18]
  GI50: 15.1 µM (inactive)
[19]
  GI50: 5.46 µM (inactive)
[20]
  GI50: 14.4 µM (inactive)

— ChEMBL document CHEMBL1201862, “PubChem BioAssay data set” (2004)
